Data published in article PMC12751012, “Nanoscale Direct-to-Biology Optimization and Structural Insights into Selective S. aureus TrmD Inhibitors” (Journal of Medicinal Chemistry, 2025).
Where “and” joins values, the source holds several entries; their conditions need not be identical. Equal entries are not always repeated. Structures can show the parent of a compound that is named as a salt.

Key:
Type in all cases: binding
S. aureus TrmD [1] = molecular target: T1, S. aureus TrmD (Staphylococcus aureus, UniProt Q2FZ43); experiment: Fluorescence polarization (FP) assay, tracer 4, S. aureus TrmD
T1 construct: made in house; host or cells: E. coli BL21
T1 sequence (Q2FZ43 1-245): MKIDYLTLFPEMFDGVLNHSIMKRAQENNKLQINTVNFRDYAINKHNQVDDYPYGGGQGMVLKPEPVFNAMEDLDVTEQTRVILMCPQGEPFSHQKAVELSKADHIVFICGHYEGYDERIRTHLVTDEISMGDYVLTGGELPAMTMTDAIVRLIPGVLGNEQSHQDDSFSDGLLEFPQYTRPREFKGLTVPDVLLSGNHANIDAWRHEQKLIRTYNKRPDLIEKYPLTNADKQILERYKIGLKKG
Protocol: To enable the screening of hundreds of nanomole-scale synthesized compounds, the implementation of a high-throughput-capable RNA methyltransferase (MTase) assay is considered fundamental. […] In this assay format, a fluorescent, SAM-pocket binding tracer can be displaced by the compound under investigation, and the resulting change in fluorescence polarization defines the read-out of the inhibitor compound’s affinity (Figure A).
(§1) Fluorescence polarization (FP) assays were performed as follows. The assays for H. influenzae TrmD have been described previously. All assays were conducted in technical triplicate using black 96-well half area plates. For the FP assays, a tracer (20 nM Cy5TPD for E. coli and H. influenzae TrmD, 10 nM tracer 4 for S. aureus TrmD) was mixed with the respective enzyme (2 μM E. coli TrmD, 2 μM H. influenzae TrmD, 500 nM S. aureus TrmD) in buffer (E. coli and H. influenzae TrmD: 50 mM HEPES, 500 mM NaCl, 5% Glycerol, pH 7.5, S. aureus TrmD: 40 mM Tris HCl, 100 mM NaCl, 10 mM MgCl2, 5% Glycerol, pH 7.5). The compounds were added in varying concentrations for K D-value determination. […] The Z-factor for tracer 4 was determined by measuring 48 replicates of the free tracer (positive controls, PC) and 48 replicates of a mixture of enzyme and tracer (negative controls, NC). The Z-factor is defined in terms of the means (μ) and standard deviations (σ) of the positive and negative controls and calculated as Z = 1–(3*(σnc + σpc)/(μnc–μpc)). […] Polarization values (mP) were determined from polarization-specific parallel and orthogonal fluorescence intensities. K D-values were calculated in GraphPad Prism 8.0.1 using the four-parameter Hill equation: y(% tracer bound) = bottom + ([ligand]-slope) × (top–bottom)/([ligand]-slope + K Dslope).

H. influenzae TrmD [2] = molecular target: T2, H. influenzae TrmD (Haemophilus influenzae, UniProt P43912); experiment: Isothermal titration calorimetry (ITC) on H. influenzae TrmD
T2 construct: host or cells: E. coli BL21
Protocol: (§2) Experiments were conducted in the S. aureus TrmD SEC buffer (40 mM Tris, pH 7.5, 100 mM NaCl, 10 mM MgCl2, 5% glycerol) for the S. aureus enzyme. The H. influenzae enzyme was buffer exchanged into its ITC buffer (50 mM HEPES, pH 7.5; 500 mM NaCl; 5% glycerol) using Amicon Ultra-15 centrifugal filter units (Merck) prior to use. Compound 1 (BLD Pharmatech) and compound 2 were dissolved in DMSO to a final concentration of 20.0 and 11.6 mM, respectively, and diluted in ITC buffer to give ligand solutions at 1 and 0.58 mM, respectively. Due to a low enthalpy signal, a low c-value titration was performed for compound 1. In this type of experiment, the ligand is typically added at high concentration and in large excess relative to its binding partner, driving more binding events per injection. This causes the equivalence point to be reached after only a few injections and leads to the loss of the characteristic sigmoidal binding curve. TrmD was diluted to a final concentration of 50 μM, and DMSO was added to a final concentration of 5% to match the buffers. ITC measurements were performed using a MicroCal PEAQ-ITC Automated workstation (Malvern Panalytical) equipped with a 200 μL Hastelloy cell and a 40 μL injection syringe. […] Data were analyzed and fitted using the MicroCal PEAQ-ITC Analysis Software 1.21 and plotted in GraphPad Prism 8.0.1.

S. aureus TrmD [3] = molecular target: T1, S. aureus TrmD; experiment: Isothermal titration calorimetry (ITC) on recombinant S. aureus TrmD
Protocol: as §2

S. aureus TrmD [4] = molecular target: T1, S. aureus TrmD; experiment: Fluorescence polarization (FP) assay, tracer 4, S. aureus TrmD; settings: enzyme concentration varied, read-out: KD of fluorescent tracer, S. aureus TrmD (FP)
H. influenzae TrmD [5] = molecular target: T2, H. influenzae TrmD; experiment: Fluorescence polarization (FP) assay, tracer 3 (Cy5TPD), H. influenzae TrmD; settings: tracer, enzyme concentration varied; read-out: KD of fluorescent tracer, H. influenzae TrmD (FP)
Protocol: as §1

[6] = KD S. aureus TrmD (FP displacement assay), apparent affinity, purified compound, 500 nM TrmD, 10 nM tracer 4
[7] = apparent affinity, purified compound, 500 nM TrmD, 10 nM tracer 4, read-out: KD S. aureus TrmD (FP displacement assay)

T2 sequence (P43912 whole entry): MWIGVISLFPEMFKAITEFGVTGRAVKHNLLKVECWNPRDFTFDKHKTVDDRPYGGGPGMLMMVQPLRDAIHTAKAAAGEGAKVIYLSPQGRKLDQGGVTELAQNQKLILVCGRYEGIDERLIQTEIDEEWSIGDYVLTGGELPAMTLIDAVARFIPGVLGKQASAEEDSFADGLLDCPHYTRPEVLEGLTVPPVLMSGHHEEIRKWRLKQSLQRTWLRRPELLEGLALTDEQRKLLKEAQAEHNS

| SMILES | Kd (S. aureus TrmD [1]; [6]) [µM] | Kd (H. influenzae TrmD [2]) [µM] | Kd (S. aureus TrmD [3]) [µM] | Kd (S. aureus TrmD [4]) | Kd (S. aureus TrmD [1]; [7]) [µM] | further results |
| --- | --- | --- | --- | --- | --- | --- |
| Oc1ncnc2scc(-c3ccccc3)c12 [Compound 1, O=C1NC=NC2=C1C(C3=CC=CC=C3)=CS2] | 28.6 | 24.3 ± 6.16 | 19.8 | – | – | – |
| NCc1ccc(CNC(=O)c2csc3nc[nH]c(=O)c23)cc1 [Compound 2, N-(4-(Aminomethyl)benzyl)-4-oxo-3,4-dihydrothieno[2,3-d]pyrimidine-5-carboxamide] | 13.8 | 4.55 ± 0.31 | 12.9 | – | – | – |
| CN1/C(=C/C=C/C=C/C2=[N+](CCCCCC(=O)NCCCn3cc(CNC(=O)c4csc5nc[nH]c(=O)c45)nn3)c3ccccc3C2(C)C)C(C)(C)c2ccccc21 [Compound 3, reference compound] | – | – | – | 23.3 µM | – | Kd (H. influenzae TrmD [5]): 2 µM and 2.02 µM |
| CN1/C(=C/C=C/C=C/C2=[N+](CCCCCC(=O)NCCCn3cc(-c4c[nH]c5nc[nH]c(=O)c45)nn3)c3ccccc3C2(C)C)C(C)(C)c2ccccc21 [Compound 4, 3,3-Dimethyl-1-(6-oxo-6-((3-(4-(4-oxo-4,7-dihydro-3H-pyrrolo[2,3-d]pyrimidin-5-yl)-1H-1,2,3-triazol-1-yl)propyl)amino)hexyl)-2-((1E,3E)-5-((E)-1,3,3-trimethylindolin-2-ylidene)penta-1,3-dien-1-yl)-3H-indol-1-ium trifluoroacetate] | – | – | – | 0.659 µM and 0.66 µM | – | – |

Further lines, with some results ahead:

| Kd (S. aureus TrmD [1]; [6]) [µM] | Kd (H. influenzae TrmD [2]) [µM] | Kd (S. aureus TrmD [3]) [µM] | Kd (S. aureus TrmD [4]) | Kd (S. aureus TrmD [1]; [7]) [µM] | SMILES | further results |
| --- | --- | --- | --- | --- | --- | --- |
| – | – | – | – | > 100 | C#Cc1c[nH]c2nc[nH]c(=O)c12 [Compound 7, 5-Ethynyl-3,7-dihydro-4H-pyrrolo[2,3-d]pyrimidin-4-one] | – |
| – | – | – | – | 10.4 ± 1.8 | CC(=O)NCCCn1cc(-c2c[nH]c3nc[nH]c(=O)c23)nn1 [Compound 8a, N-(3-(4-(4-Oxo-4,7-dihydro-3H-pyrrolo[2,3-d]pyrimidin-5-yl)-1H-1,2,3-triazol-1-yl)propyl)acetamide] | Kd (S. aureus TrmD [1]; crude nanomole-scale reaction mixture, read-out: KD(in situ) S. aureus TrmD (FP displacement assay)): 4.98 µM |
